Test results taken from patent publication US20220119354A1, “DIAMINO-SUBSTITUTED PYRIDINES AND PYRIMIDINES AS HERBICIDES” (FMC Corporation, priority 2019, published 2022).

How the values were obtained:
Format in all cases: in vivo
[1] = tested on: sedge, umbrella (small-flower umbrella sedge, Cyperus difformis); assay: Test B flooded paddy test, umbrella sedge; settings: Flood, 250 g ai/ha, applied to paddy water, 2-leaf stage, visual evaluation after 13 to 15 d
Outline: (§1)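 Plants grown to 2-leaf stage. Compounds applied directly into paddy water flooded 3 cm above soil, with that depth kept throughout. After 13–15 d in greenhouse, visual rating versus controls on a 0–100 scale (0 no effect, 100 complete control).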

rice (Oryza sativa) = assay: Test B flooded paddy test, rice; settings: Flood, 250 g ai/ha, applied to paddy water, 2-leaf stage, visual evaluation after 13 to 15 d
Outline: as §1

[2] = tested on: foxtail, giant (Setaria faberii); assay: Test A postemergence, giant foxtail; settings: 0 to 100 scale, 0 no effect, 100 complete control
Outline: (§2)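 Pots of loam–sand mix; preemergence directed soil spray at sowing, postemergence spray at one- to two-leaf stage. Readout: visual injury vs untreated controls, ~10 d, 0–100 scale.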

corn (Zea mays) = assay: Test A postemergence, corn; settings: 0 to 100 scale, 0 no effect, 100 complete control
Outline: as §2

[3] = tested on: barnyardgrass (Echinochloa crus-galli); assay: Test B flooded paddy test, barnyardgrass; settings: Flood, 250 g ai/ha, applied to paddy water, 2-leaf stage, visual evaluation after 13 to 15 d
Outline: as §1

[4] = tested on: wheat (Triticum aestivum); assay: Test A postemergence, wheat; settings: 0 to 100 scale, 0 no effect, 100 complete control
Outline: as §2

[5] = tested on: ducksalad (Heteranthera limosa); assay: Test B flooded paddy test, ducksalad; settings: Flood, 250 g ai/ha, applied to paddy water, 2-leaf stage, visual evaluation after 13 to 15 d
Outline: as §1

[6] = tested on: ryegrass, Italian (Lolium multiflorum); assay: Test A preemergence, Italian ryegrass; settings: 0 to 100 scale, 0 is no effect, 100 is complete control
Outline: as §2

[7] = tested on: barnyardgrass (Echinochloa crus-galli); assay: Test A preemergence, barnyardgrass; settings: 0 to 100 scale, 0 is no effect, 100 is complete control
Outline: as §2

[8] = tested on: ragweed (common ragweed, Ambrosia elatior); assay: Test A preemergence, ragweed; settings: 0 to 100 scale, 0 is no effect, 100 is complete control
Outline: as §2

[9] = tested on: ryegrass, Italian (Lolium multiflorum); assay: Test A postemergence, Italian ryegrass; settings: 0 to 100 scale, 0 no effect, 100 complete control
Outline: as §2

[10] = tested on: pigweed (Amaranthus retroflexus); assay: Test A postemergence, pigweed; settings: 0 to 100 scale, 0 no effect, 100 complete control
Outline: as §2

[11] = tested on: pigweed (Amaranthus retroflexus); assay: Test A preemergence, pigweed; settings: 0 to 100 scale, 0 is no effect, 100 is complete control
Outline: as §2

kochia (Kochia scoparia) [12] = assay: Test A postemergence, kochia; settings: 0 to 100 scale, 0 no effect, 100 complete control
Outline: as §2

kochia (Kochia scoparia) [13] = assay: Test A preemergence, kochia; settings: 0 to 100 scale, 0 is no effect, 100 is complete control
Outline: as §2

[14] = tested on: foxtail, giant (Setaria faberii); assay: Test A preemergence, giant foxtail; settings: 0 to 100 scale, 0 is no effect, 100 is complete control
Outline: as §2

[15] = tested on: galium (catchweed bedstraw, Galium aparine); assay: Test A postemergence, galium; settings: 0 to 100 scale, 0 no effect, 100 complete control
Outline: as §2

[16] = tested on: ragweed (common ragweed, Ambrosia elatior); assay: Test A postemergence, ragweed; settings: 0 to 100 scale, 0 no effect, 100 complete control
Outline: as §2

[17] = tested on: barnyardgrass (Echinochloa crus-galli); assay: Test A postemergence, barnyardgrass; settings: 0 to 100 scale, 0 no effect, 100 complete control
Outline: as §2

[18] = tested on: blackgrass (Alopecurus myosuroides); assay: Test A postemergence, blackgrass; settings: 0 to 100 scale, 0 no effect, 100 complete control
Outline: as §2

| SMILES | Plant response rating, Sedge, Umbrella (0 to 100 scale, 0 is no effect, 100 is complete control) [1] | Plant response rating, Rice (0 to 100 scale, 0 is no effect, 100 is complete control) (rice (Oryza sativa)) | Plant response rating, Foxtail, Giant ([2]; 31 g ai/ha) | Plant response rating, Foxtail, Giant ([2]; 125 g ai/ha) | Plant response rating, Corn (corn (Zea mays); 31 g ai/ha) | Plant response rating, Corn (corn (Zea mays); 125 g ai/ha) | Plant response rating, Barnyardgrass (0 to 100 scale, 0 is no effect, 100 is complete control) [3] | Plant response rating, Wheat ([4]; 31 g ai/ha) | Plant response rating, Wheat ([4]; 125 g ai/ha) | Plant response rating, Ducksalad (0 to 100 scale, 0 is no effect, 100 is complete control) [5] | Ryegrass, Italian plant response rating ([6]; 31 g ai/ha) | Ryegrass, Italian plant response rating ([6]; 125 g ai/ha) | Barnyardgrass plant response rating ([7]; 31 g ai/ha) | Barnyardgrass plant response rating ([7]; 125 g ai/ha) | Ragweed plant response rating ([8]; 31 g ai/ha) | Ragweed plant response rating ([8]; 125 g ai/ha) | Plant response rating, Ryegrass, Italian ([9]; 31 g ai/ha) | Plant response rating, Ryegrass, Italian ([9]; 125 g ai/ha) | Plant response rating, Pigweed ([10]; 31 g ai/ha) | Plant response rating, Pigweed ([10]; 125 g ai/ha) | also measured |
| --- | --- | --- | --- | --- | --- | --- | --- | --- | --- | --- | --- | --- | --- | --- | --- | --- | --- | --- | --- | --- | --- |
| CC(F)c1nc(N[C@H](C)c2cc3ccccc3s2)nc(N)c1C(F)(F)F (stereo partly drawn) [Compound 108] | 75 | 0 | 0 | 20 | 0 | 10 | 35 | 0 | 0 | 30 | 0 | 30 | 40 | 30 | 50 | 70 | 0 | 50 | 70 | 90 | Pigweed plant response rating ([11]; 31 g ai/ha): 70; Pigweed plant response rating ([11]; 125 g ai/ha): 90; Plant response rating, Kochia (kochia (Kochia scoparia) [12]; 31 g ai/ha): 40; Plant response rating, Kochia (kochia (Kochia scoparia) [12]; 125 g ai/ha): 70; Kochia plant response rating (kochia (Kochia scoparia) [13]; 31 g ai/ha): 90; Kochia plant response rating (kochia (Kochia scoparia) [13]; 125 g ai/ha): 90; Foxtail, Giant plant response rating ([14]; 31 g ai/ha): 30; Foxtail, Giant plant response rating ([14]; 125 g ai/ha): 30; Plant response rating, Galium ([15]; 31 g ai/ha): 50; Plant response rating, Galium ([15]; 125 g ai/ha): 70; Plant response rating, Ragweed ([16]; 31 g ai/ha): 30; Plant response rating, Ragweed ([16]; 125 g ai/ha): 50; Plant response rating, Barnyardgrass ([17]; 31 g ai/ha): 20; Plant response rating, Barnyardgrass ([17]; 125 g ai/ha): 0; Plant response rating, Blackgrass ([18]; 31 g ai/ha): 0; Plant response rating, Blackgrass ([18]; 125 g ai/ha): 0 |
| C[C@@H](Nc1nc(N)c(C(F)(F)F)c(C(F)F)n1)c1cc2ccccc2s1 [Compound 109] | 75 | 20 | 0 | 20 | 0 | 0 | 35 | 0 | 0 | 65 | 20 | 40 | 0 | 0 | 30 | 90 | 0 | 0 | 80 | 90 | Pigweed plant response rating ([11]; 31 g ai/ha): 70; Pigweed plant response rating ([11]; 125 g ai/ha): 90; Plant response rating, Kochia (kochia (Kochia scoparia) [12]; 31 g ai/ha): 50; Plant response rating, Kochia (kochia (Kochia scoparia) [12]; 125 g ai/ha): 70; Kochia plant response rating (kochia (Kochia scoparia) [13]; 31 g ai/ha): 80; Kochia plant response rating (kochia (Kochia scoparia) [13]; 125 g ai/ha): 90; Foxtail, Giant plant response rating ([14]; 31 g ai/ha): 0; Foxtail, Giant plant response rating ([14]; 125 g ai/ha): 30; Plant response rating, Galium ([15]; 31 g ai/ha): 40; Plant response rating, Galium ([15]; 125 g ai/ha): 70; Plant response rating, Ragweed ([16]; 31 g ai/ha): 50; Plant response rating, Ragweed ([16]; 125 g ai/ha): 60; Plant response rating, Barnyardgrass ([17]; 31 g ai/ha): 0; Plant response rating, Barnyardgrass ([17]; 125 g ai/ha): 0; Plant response rating, Blackgrass ([18]; 31 g ai/ha): 10; Plant response rating, Blackgrass ([18]; 125 g ai/ha): 10 |
